In US20230364039A1, “Methods of Managing Side Effects of a Vasopressin Receptor Antagonist Therapy” (Emory University, priority 2020, published 2023):
Where two headings read alike, the source gives them in different places. Blank lines part the entries; values can stand above or below the molecule they belong to.

Assays:
[1] = test system: vasopressin type 2 receptor knockout mouse model; assay: Urine concentrating ability in vasopressin type 2 receptor knockout mouse model; assay type: in vivo
[2] = Hypoglycemia liability of AMPK activators; assay type: in vivo; details: preliminary data
tolvaptan treated rats = assay: Urine osmolality / urine concentrating ability in tolvaptan treated rats; assay type: in vivo; details: FIG. 1; for urine osmolality: rats on tolvaptan 10 mg/kg/day by gavage, AMPK activator 2.5, 5 and 10 mg/kg/day up to 14 days, vs tolvaptan only
Description: Tolvaptan (10 mg/kg/day) was delivered by gavage feeding daily. AMPK activator was given at 2.5, 5 and 10 mg/kg/day for up to 14 total days, with daily urine collection for osmolality determination. Light bars: Osmolality in rats receiving tolvaptan only. Black bars: treated rats. Mean±s.e., n=4-5 for lower doses, 8-10 for 10 mg/kg/day, *=p<0.05.

[3] = test system: adenosine monophosphate activated protein kinase (AMPK); assay: AMPK activator potency and specificity (preliminary data)
[4] = test system: rodents with nephrogenic diabetes insipidus; details: Efe et al., JCI Insight 2016; cited from earlier work
[5] = general statement on some AMPK activators; cited from earlier work
[6] = test system: autosomal dominant polycystic kidney disease (ADPKD); details: cited from earlier work

hypoglycemia [2]: does not cause hypoglycemia | potency and specificity as AMPK activator [3]: potent, specific
SMILES: NC(=O)C1(CCCCCCCCCCCCC2(C(N)=O)CC2)CC1 [NP-5033, 1,1′-(dodecane-1,12-diyl)bis(cyclopropane-1-carboxamide)]
urine concentrating ability [1]: improvement in urine concentrating ability | urine osmolality (tolvaptan treated rats): increases urine osmolality | urine osmolality (tolvaptan treated rats; listed as AMPK activator): urine osmolality increases | urine concentrating ability (tolvaptan treated rats; tolvaptan treated rats): improvement in urine concentrating ability

SMILES: CN(C)C(=N)N=C(N)N [metformin]
urine concentration [4]: improves urine concentration | hypoglycemia [5]: risk of developing hypoglycemia

SMILES: Cc1ccccc1C(=O)Nc1ccc(C(=O)N2CCCC(O)c3cc(Cl)ccc32)c(C)c1 (stereo not shown) [tolvaptan, N-(4-(7-chloro-5-hydroxy-2,3,4,5-tetrahydro-1H-benzo[b]azepine-1-carbonyl)-3-methylphenyl)-2-methylbenzamide]
progression of renal cyst development ([6]; ADPKD): slows the progression of renal cyst development | side effect: urine volume ([6]; tolvaptan treatment, polyuria defined as greater than 2.5 L or 3 L over 24 hours in adults): overt polyuria
